From US20220289732A1, “HETEROCYCLIC WDR5 INHIBITORS AS ANTI-CANCER COMPOUNDS” (NOVARTIS AG, priority 2019, published 2022)

How the values were obtained:
[1] = target: wild type MLL1 four-member complex (MLL1-4C) (Homo sapiens, UniProt P61964); experiment: MLL1 LC-MS assay (SAH production); type: biochemical; conditions: read-out: (b) MLL LCMS Peptide Val.v.1 Qualified AC50
Experimental: The compounds of the present disclosure were serially and separately diluted 3-fold in DMSO to obtain a total of eight or twelve concentrations. Then the test compounds at each concentration (120 nL of each) were transferred by Mosquito into white Proxiplate plus 384-well microplate (PerkinElmer). Solutions (6 μL) of 60 nM wild type MLL1 four-member complex (MLL1-4C) and 5 μM SAM in the reaction buffer (20 mM Tris-HCl, pH8.0, 0.01% Tween 20, 1 mM DTT, 10 mM MgCl2, 0.01% BSA) were added to the wells that were then incubated with the test compound for 20 min. A 6 μL solution of 20 μM of the peptide substrate H3K4me0 (histone H3[1-21]-Biotin) in the reaction buffer was added to initiate each reaction. The final components in the reaction solution include 30 nM MLL1-4C, 2.5 μM SAM, and 10 μM H3K4me0 with varying concentration of the compounds. A positive control consisted of 30 nM MLL1-4C, 2.5 μM SAM, and 10 μM substrate in the absence of the test compound, and a negative control consisted of 2.5 μM SAM, and 10 μM substrate only. Each reaction was incubated at rt for 120 min, then stopped by addition of 3 μL per of quench solution (2.5% TFA with 320 nM d4-SAH). The reaction mixture was centrifuged (Eppendorf centrifuge 5810, Rotor A-4-62) for 2 min at 2000 rmp. The SAH production from the enzymatic assays were monitored by LC-MS/MS on an API 4000 triple quadrupole mass spec with Turbolon Spray (Applied Biosystem) coupled with Prominenece UFLC (Shimazu). The level of SAH production were then normalized based on the values coming from the positive and negative controls to give percent enzyme activities. The data were then fit to a dose response equation using the program Helios (Novartis) to get the IC50 values of the test compound. Helios is a Novartis in-house assay data analysis software using the methods described by Normolle, D. P., Statistics in Medicine, 12:2025-2042 (1993); Formenko, I. et al., Computer Methods and programs in Biomedicine, 82, 31-37 (2006); Sebaugh, J. L., Pharmaceutical Statistics, 10:128-134 (2011); Kelly, C. et al., Biometrics, 46(4):1071-1085 (1990); and Kahm, M, et al., Journal of Statistical Software, 33(7):(2010) (grofit: Fitting Biological Growth Curves with R, pages 1-21, available at http://www.jstatsoft.org/).

MV4-11 cells = experiment: MV4-11 6-day cell growth CTG (CellTiter-Glo) assay; type: cell-based; conditions: Homo sapiens, MV4-11, 144 h, 6 days, read-out: (c) MLL/WDR5 cell proliferation assay//MLL/WDR5 proliferation MV4:11 Qualified AC50
Experimental: MV4-11 6-Day Cell Growth CTG (CellTiter-Glo) Assay
Acute myeloid leukemia cell MV4-11 (ATCC® CRL-9591™) was cultured with RPMI 1640 medium (Thermo Fisher Scientific, cat #11875) supplemented with 10% FBS (Thermo Fisher Scientific, cat #10099141) in humidified incubator at 37° C., 5% CO2. To assess the effect of WDR5 inhibitor on cell growth, the compound of the present invention was dissolved in DMSO and serially diluted at 1:3 for 12 points starting from 10 mM then 200 nL for the replicate of each dose per well was dispensed to Viewplate-384 Black (Perkin Elmer). Exponentially growing MV4-11 cells were seeded at the density of 300 cells per well in 40 μL to the plate, so the final compound working concentration starts from 50 μM. After 6 days, 40 μL CellTiter-Glo (Promega, cat #G7573) was added into the cell culture well and luminescence was read with Envision (Perkin Elmer) to determine the viable cells. The percentage inhibition was calculated against the samples treated with DMSO only and the data were used for dose response curve fitting in GraphPad Prism to get the IC50 of representative compound of present invention, which reflects the inhibition of WDR5 activity in the proliferation of MV4;11.

WDR5 = WDR5 (Homo sapiens, UniProt P61964); experiment: WDR5 HTRF binding assay; conditions: read-out: (a) WDR5 HTRF Pep Val v.1[Inhibitor/IC50]Qualified AC50
Experimental: The compounds were serially diluted 3-fold in DMSO to obtain a total of twelve concentrations. Then the test compounds at each concentration (90 nL of each) were transferred by Mosquito in the white Proxiplate plus 384-well microplate (Perkin Elmer). The assay mixture (typical 9 μL) containing 6 nM WDR5 and 20 nM Biotin-MLL1 WIN peptide (3762-3773) in the assay buffer (25 mM Hepes, pH7.5, 0.05% Tween 20, 2 mM DTT, 100 mM NaCl, 0.1% BSA) were added to the wells. For counter assay, a 9 μL solution of 15 nM Biotin-PEG-His peptide was added into the wells. After 20 min incubation at rt, a 3 μL detection solution containing 14 μg/ml Phycolink Streptavidin Allophycocyanin (Prozyme), 2 nM Anti-His-Eu (PerkinElmer) in assay buffer was then added. After 1 hr incubation, the plate was read in the EnVision reader (PerkinElmer) using the HTRF protocol (The protocol set-up: Lance/Delfia dual enhancer mirror, excitation at 320 UV2 (TRF), emission at APC665, 2nd emission at EuropiμM 615). HTRF signals were normalized based on the reading coming from the positive (maximum signal control) and negative controls (minimum signal control) to give percentage of activities left. The data were then fit to a dose response equation using the program Helios (Novartis) to get the IC50 values. Helios is a Novartis in-house assay data analysis software using the methods described by Normolle, D. P., Statistics in Medicine, 12:2025-2042 (1993); Formenko, I. et al., Computer Methods and programs in Biomedicine, 82, 31-37 (2006); Sebaugh, J. L., Pharmaceutical Statistics, 10:128-134 (2011); Kelly, C. et al., Biometrics, 46(4):1071-1085 (1990); and Kahm, M, et al., Journal of Statistical Software, 33(7):(2010) (grofit: Fitting Biological Growth Curves with R, pages 1-21, available at http://www.jstatsoft.org/).

AC50 [1] [nM] | IC50 (WDR5) [nM] | SMILES | AC50 (MV4-11 cells) [nM]
10 to 1000 | 10 to 1000 | CNc1nccn1Cc1cc(CN(C)C2CC2)c2c(c1)C(=O)N([C@@H](C)c1cnc(F)c(OC)c1)CC2 [Example 15, (S)-5-((cyclopropyl(methyl)amino)methyl)-2-(1-(6-fluoro-5-methoxypyridin-3-yl)ethyl)-7-((2-(methylamino)-1H-imidazol-1-yl)methyl)-3,4-dihydroisoquinolin-1(2H)-one] | 10 to 1000
10 to 1000 | 10 to 1000 | CNc1nccn1Cc1cc(CN2CC[C@@H](F)C2)c2c(c1)C(=O)N([C@@H](C)c1cc(OC)c(F)cn1)CC2 [Example 16] | 10 to 1000
10 to 1000 | 10 to 1000 | CNc1nccn1Cc1cc(CN2CCC23COC3)c2c(c1)C(=O)N([C@@H](C)c1cc(OC)c(F)cn1)CC2 [Example 17, (S)-5((6-oxa-1-azaspiro+3.3+heptan-1-yl)methyl)-2-(1-(5-fluoro-4-methoxypyridin-2-yl)ethyl)-7-((2-(methylamino)-1H-imidazol-1-yl)methyl)-3,4-dihydroisoquinolin-1(2H)-one] | 10 to 1000
10 to 1000 | 10 to 1000 | CCOc1cc([C@H](C)N2CCc3c(CN(C)C4CC4)cc(Cn4ccnc4NC)cc3C2=O)ncc1C#N [Example 18, (S)-6-(1-(5-((cyclopropyl(methyl)amino)methyl)-7-((2-(methylamino)-1H-imidazol-1-yl)methyl)-1-oxo-3,4-dihydroisoquinolin-2(1H)-yl)ethyl)-4-ethoxynicotinonitrile] | 10 to 1000
10 to 1000 | 10 to 1000 | CCOc1cc([C@H](C)N2CCc3c(CN(C)C)cc(Cn4ccnc4NC)cc3C2=O)ncc1Cl [Example 20, (S)-2-(1-(5-chloro-4-ethoxypyridin-2-yl)ethyl)-5-((dimethylamino)methyl)-7-((2-(methylamino)-1H-imidazol-1-yl)methyl)-3,4-dihydroisoquinolin-1(2H)-one] | 10 to 1000
10 to 1000 | 10 to 1000 | CCOc1cc([C@H](C)N2CCc3c(CN(C)C4CC4)cc(Cn4ccnc4NC)cc3C2=O)ncc1F [Example 21, (S)-5-((cyclopropyl(methyl)amino)methyl)-2-(1-(4-ethoxy-5-fluoropyridin-2-yl)ethyl)-7-((2-(methylamino)-1H-imidazol-1-yl)methyl)-3,4-dihydroisoquinolin-1(2H)-one] | 10 to 1000
10 to 1000 | 10 to 1000 | CCOc1cc([C@H](C)N2CCc3c(CN(C)C4CC4)cc(Cn4ccnc4NC)cc3C2=O)ncc1Cl [Example 22, (S)-2-(1-(5-chloro-4-ethoxypyridin-2-yl)ethyl)-5-((cyclopropyl(methyl)amino)methyl)-7-((2-(methylamino)-1H-imidazol-1-yl)methyl)-3,4-dihydroisoquinolin-1(2H)-one] | 10 to 1000
10 to 1000 | 10 to 1000 | CCOc1cc([C@H](C)N2CCc3c(CN4CCOCC4)cc(Cn4ccnc4NC)cc3C2=O)ncc1Cl [Example 23, (S)-2-(1-(5-chloro-4-ethoxypyridin-2-yl)ethyl)-7-((2-(methylamino)-1H-imidazol-1-yl)methyl)-5-(morpholinomethyl)-3,4-dihydroisoquinolin-1(2H)-one] | 10 to 1000
10 to 1000 | 10 to 1000 | CCOc1cc(CN2CCc3c(CN(C)C)cc(Cn4ccnc4NC)cc3C2=O)cnc1C#N [Example 24, 5-((5-((dimethylamino)methyl)-7-((2-(methylamino)-1H-imidazol-1-yl)methyl)-1-oxo-3,4-dihydroisoquinolin-2(1H)-yl)methyl)-3-ethoxypicolinonitrile] | 10 to 1000
10 to 1000 | 10 to 1000 | CCOc1cc(CN2CCc3c(CN4CC(C)C4)cc(Cn4ccnc4NC)cc3C2=O)cnc1C#N [Example 25, 3-ethoxy-5-((7-((2-(methylamino)-1H-imidazol-1-yl)methyl)-5-((3-methylazetidin-1-yl)methyl)-1-oxo-3,4-dihydroisoquinolin-2(1H)-yl)methyl)picolinonitrile] | 10 to 1000
10 to 1000 | 10 to 1000 | CCOc1cc(CN2CCc3c(CN(C)C4CC4)cc(Cn4ccnc4NC)cc3C2=O)cnc1C#N [Example 26, 5-((5-((cyclopropyl(methyl)amino)methyl)-7-((2-(methylamino)-1H-imidazol-1-yl)methyl)-1-oxo-3,4-dihydroisoquinolin-2(1H)-yl)methyl)-3-ethoxypicolinonitrile] | 10 to 1000
10 to 1000 | 10 to 1000 | CCOc1cc([C@H](C)N2CCc3c(CN4CCOCC4)cc(Cn4ccnc4NC)cc3C2=O)ncc1F [Example 27, (S)-2-(1-(4-ethoxy-5-fluoropyridin-2-yl)ethyl)-7-((2-(methylamino)-1H-imidazol-1-yl)methyl)-5-(morpholinomethyl)-3,4-dihydroisoquinolin-1(2H)-one] | 10 to 1000
10 to 1000 | 10 to 1000 | CCOc1cc([C@H](C)N2CCc3c(CN4CC(F)C4)cc(Cn4ccnc4NC)cc3C2=O)ncc1C#N [Example 28, (S)-4-ethoxy-6-(1-(5-((3-fluoroazetidin-1-yl)methyl)-7-((2-(methylamino)-1H-imidazol-1-yl)methyl)-1-oxo-3,4-dihydroisoquinolin-2(1H)-yl)ethyl)nicotinonitrile] | 10 to 1000
10 to 1000 | 10 to 1000 | CNc1nccn1Cc1cc(CN(C)C)c2c(c1)C(=O)N([C@@H](C)c1cnc(F)c(OC)c1)CC2 [Example 29, (S)-5-((dimethylamino)methyl)-2-(1-(6-fluoro-5-methoxypyridin-3-yl)ethyl)-7-((2-(methylamino)-1H-imidazol-1-yl)methyl)-3,4-dihydroisoquinolin-1(2H)-one] | 10 to 1000
